Assay results from patent US20100323984A1, “COSMETIC ORAL AND/OR PARENTERAL USE OF GLUCOSAMINE OPTIONALLY IN COMBINATION WITH AT LEAST ONE POLYPHENOL COMPOUND, AND CORRESPONDING COMPOSITION” (LABORATOIRES INNEOV, priority 2006, published 2010).
Structures can show the parent of a compound that is named as a salt.

Experiments:
[1] = test system: Decorin; experiment: Example 4 clinical study, skin biopsy mRNA by RT-PCR: decorin; type: in vivo, human; settings: oral, equivalent to 250 mg of glucosamine, 8 weeks, women aged 50 to 65, n=8; placebo 1.11 ± 0.22
Experimental: (§1) Restrictive randomized monocentric double-blind study versus placebo. Fifteen women, aged 50 to 65, were given, as a supplement, for 8 weeks, either a placebo (n=7) or glucosamine sulfate (n=8) equivalent to 250 mg of glucosamine (GLU).
(§2) A skin biopsy 3 mm in diameter (inner face of the arm) was taken before the beginning (T0) and at the end of the 8 weeks of supplementation (T8).
(§3) The total RNA contained in the skin samples was extracted and purified by means of an Ambion Ribo Pure Kit.
(§4) The analysis of the specific dermal markers was carried out by RT-PCR as previously described (Nusgens et al, JID, 116: 853-859, 2001). All the results are expressed in arbitrary units relative to the amount of 28S rRNA.
(§5) The effects of the supplementation (placebo or GLU) were then analyzed by comparing, for each volunteer, the individual expression of the mRNAs at T8 and at T0. A […] ratio was thus calculated. The means of each ratio of the two groups were compared using a Student's test for paired samples.

[2] = test system: Fibromodulin; experiment: Example 4 clinical study, skin biopsy mRNA by RT-PCR: fibromodulin; type: in vivo, human; settings: oral, equivalent to 250 mg of glucosamine, 8 weeks, women aged 50 to 65, n=8; placebo 1.12 ± 0.16
Experimental: as §1, §2, §3, §4, §5

[3] = test system: Vimentin; experiment: Example 4 clinical study, skin biopsy mRNA by RT-PCR: vimentin; type: in vivo, human; settings: oral, equivalent to 250 mg of glucosamine, 8 weeks, women aged 50 to 65, n=8; placebo 1.27 ± 0.33
Experimental: as §1, §2, §3, §4, §5

[4] = test system: Hyaluron synthase; experiment: Example 4 clinical study, skin biopsy mRNA by RT-PCR: hyaluron synthase; type: in vivo, human; settings: oral, equivalent to 250 mg of glucosamine, 8 weeks, women aged 50 to 65, n=8; placebo 1.51 ± 0.73
Experimental: as §1, §2, §3, §4, §5

[5] = test system: fibroblasts; experiment: Retracting collagen gel (contractile properties of fibroblasts); type: cell-based, human
Experimental: Human fibroblasts, harvested by growth from skin explants from a normal young donor, are routinely cultured in DMEM containing 10% of fetal bovine serum (FCS), ascorbic acid (50 μg/ml), penicillin-streptomycin (100 U/ml), referred to in the rest of the report as DMEM-FCS. They are amplified in culture by trypsinizing subconfluent cultures and dividing the dishes 1 in 3. The cultures are used up until passage 14. They are regularly tested for the absence of mycoplasma. A sterile solution of purified native collagen is mixed with a suspension of fibroblasts, DMEM-FCS medium and the test products in bacteriological dishes. The mixture is brought to 37° C., this resulting in polymerization of the collagen and the formation of a three-dimensional collagen gel trapping the fibroblasts and floating in the culture medium. The cells attached to the collagen fibers and, under the contractile activity of the cytoskeleton of the fibroblasts, the gel is gradually retracted. This gel is commonly referred to as “Retracting Collagen Gel” or RCG. […]

[6] = test system: MMP3; experiment: MMP3 mRNA by RT-PCR, human dermal fibroblasts in a monolayer on plastic; type: cell-based; settings: for MMP3 mRNA: control 1745 ± 31
Experimental: (§6) Human fibroblasts, harvested by growth from skin explants from a normal young donor, are routinely cultured in DMEM containing 10% of fetal bovine serum (FCS), ascorbic acid (50 μg/ml), penicillin-streptomycin (100 U/ml), referred to in the rest of the report as DMEM-FCS. They are amplified in culture by trypsinizing subconfluent cultures and dividing the dishes 1 in 3. The cultures are used up until passage 14. They are regularly tested for the absence of mycoplasma.
(§7) The glucosamine sulfate is provided in the form of (C6H14NO5)2 S04.2KCl (glucosamine.SO4 titer: 74%) brand Bioiberica, code F0379, Batch 4/0001. A stock solution at 13.6 mg/ml of distilled water is sterilized by filtration through an Acrodisc, and conserved at −20° C.
The fibroblasts are seeded in DMEM-FCS in a proportion of 2.10^5 cells/disk of 6 cm. After 18 h of attachment, the culture medium is renewed with DMEM-FCS containing:
a) glucosamine sulfate alone • [plasma concentration] 2×(n=2) • 5× (n=2) • 10× (n=2) • control (n=3)
The total amount of RNA present in the solution that will be used to carry out the specific mRNA measurements is determined by measuring the 28S ribosomal RNA. The RNA solution is aliquoted and frozen at −80° C. until the specific mRNAs are assayed by RT-PCR. The mRNA results are expressed in arbitrary units (AU) per unit of 28S. The measurements are carried out in triplicate on two or three separate cultures. • MMP3: stromelysin 1 responsible for the degradation of proteoglycans and of other extracellular matrix constituents and activator of MMP 1

[7] = test system: CD44 hyaluronic acid receptor; experiment: Immunohistochemical demonstration of the hyaluronic acid receptor (CD44) in human skin explants kept alive; type: cell-based; settings: glucosamine 5 μM in culture medium, D4, scores 0 to 4, control skin 3.4 ± 0.7
Experimental: For this, a method of culturing was used which allows human skin to be kept alive under metabolic conditions close to in vivo (individuals aged between 50 and 60).
The glucosamine in aqueous solution was added to the culture medium, at the plasma concentration (5 μM), thus making it possible to simulate oral and/or parenteral administration.
Skin fragments were obtained after plastic surgery (mammary or abdominal plasties) from menopausal women (8 different donors from female individuals aged between 50 and 60). The fragments are placed in inserts which are themselves suspended above culture wells. Culture medium is added to the bottom of the wells, the medium passing by slow diffusion between the two compartments by means of a porous membrane (12 μm).
From D0 to D10, glucosamine was added to the culture medium of the skin fragments, every day. For the CD44 analysis, a series of skin samples was taken at D4. A second series was taken at D10 for assaying the collagen synthesis.
The immunodetection was carried out using the CSA kit (DAKO) and visualized in red with AEC (3-amino-9-ethylcarbazole).
Semi-quantitative scores made it possible to specify the intensity of the immunolabeling (scores 0 to 4, from negative to intense). […]

[8] = test system: Human fibroblasts; experiment: Cytotoxicity on fibroblasts (number of cells by DNA fluorimetry); type: cell-based; settings: for DNA (number of cells): 48 h, control 2.37 ± 0.33
Experimental: as §6, §7
The fibroblasts are seeded into 24-well multiwells at 25 or 50×10^3 cells/well in DMEM-FCS. After 6 h of attachment, 20 μl of gradual dilutions of the active agents to be tested are added to the cultures. After 24 h of contact, the medium and the active agents are renewed. After 48 h of culture, the medium is removed, and the cell layers are rinsed twice with physiological saline. The number of cells is determined by measuring DNA by the fluorimetric technique using the bisbenzimide reagent in a “Gemini” fluorimeter. The cultures are prepared in triplicate and the measurements are carried out on each culture in duplicate. The control cultures receive the solvent alone.
The toxicity of glucosamine sulfate is tested at 0.5, 1, 5, 10, 20 and 40× the plasma concentration, i.e. 3.4, 6.8, 34, 68, 136 and 272 μg/ml of culture medium.

[9] = test system: Biglycan; experiment: Example 4 clinical study, skin biopsy mRNA by RT-PCR: biglycan; type: in vivo, human; settings: oral, equivalent to 250 mg of glucosamine, 8 weeks, women aged 50 to 65, n=8; placebo 1.10 ± 0.18
Experimental: as §1, §2, §3, §4, §5

N[C@@H](C=O)[C@@H](O)[C@H](O)[C@H](O)CO [glucosamine sulfate]
Decorin mRNA (T8/T0) [1]: significantly increases
Fibromodulin mRNA (T8/T0) [2]: significantly increases
Vimentin mRNA (T8/T0) [3]: significantly increases
Hyaluron synthase mRNA (T8/T0) [4]: significantly increases
reduction in the diameter of the collagen gel (retraction) ([5]; 2×, 5× and 10× the plasma concentration, 20 000 fibroblasts, 46 h, control 19 mm): 22 mm
reduction in diameter of the collagen gel ([5]; plasma concentration, 25 000 fibroblasts, 18 hours, controls 21 mm): 23 mm
MMP3 mRNA ([6]; 2x plasma concentration): 1261 ± 120 UA/28S
level of MMP3 mRNA (in words) ([6]; 2x, 5x, 10x plasma concentration, p<0.005): significant reduction
MMP3 mRNA ([6]; 5x plasma concentration): 1162 ± 22 UA/28S
MMP3 mRNA ([6]; 10x plasma concentration): 1060 ± 375 UA/28S
CD44 labeling Topography score (mean semi-quantitative score) [7]: 3.7 ± 0.5
number of cells (rate of proliferation of the fibroblasts) ([8]; 34 μg/ml, p=0.04): increase in the number of cells
DNA (number of cells) ([8]; 0.5x plasma concentration, 3.4 μg/ml): 2.81 ± 0.41 µg/mL
DNA (number of cells) ([8]; 1x plasma concentration, 6.8 μg/ml): 2.56 ± 0.37 µg/mL
DNA (number of cells) ([8]; 5x plasma concentration, 34 μg/ml): 2.89 ± 0.23 µg/mL
DNA (number of cells) ([8]; 10x plasma concentration, 68 μg/ml): 2.61 ± 0.26 µg/mL
DNA (number of cells) ([8]; 20x plasma concentration, 136 μg/ml): 2.52 ± 0.18 µg/mL
DNA (number of cells) ([8]; 40x plasma concentration, 272 μg/ml): 2.50 ± 0.32 µg/mL
cytotoxic effect ([8]; even at concentrations representing 40× the plasma concentration): No cytotoxic effect
Biglycan mRNA (T8/T0) [9]: significantly increases
